Experimental data reported in article PMC6534341, “α-Synuclein–Confocal Nanoscanning (ASYN-CONA), a Bead-Based Assay for Detecting Early-Stage α-Synuclein Aggregation” (Analytical Chemistry, 2019).
Like-named read-outs stand apart in the source and are kept apart here.

Target: T1, α-synuclein (Homo sapiens, UniProt P37840, A91C)
T1 construct: gene SNCA
Test: ASYN-CONA on-bead aggregation assay (confocal bead ring intensity, […] EtOH, […] h)
Format: biochemical

SMILES: O=c1cc(-c2ccccc2)oc2cc(O)c(O)c(O)c12 [baicalein]
- IC50: 4.32 ± 0.6 µM

SMILES: COc1cc(/C=C/C(=O)CC(=O)/C=C/c2ccc(O)c(OC)c2)ccc1O [curcumin]
- IC50 (read-out: IC50): 2.76 ± 0.89 µM

SMILES: CO[C@H]1/C=C/O[C@@]2(C)Oc3c(C)c(O)c4c(O)c(c(/C=N/N5CCN(C)CC5)c(O)c4c3C2=O)NC(=O)/C(C)=C\C=C\[C@H](C)[C@H](O)[C@@H](C)[C@@H](O)[C@@H](C)[C@H](OC(C)=O)[C@@H]1C [rifampicin]
- IC50 (read-out: IC50): 502 ± 360 µM
